{
  "source": "paper PMC7753040",
  "about": "“Discovery of a Potent RIPK3 Inhibitor for the Amelioration of Necroptosis-Associated Inflammatory Injury” (Frontiers in Cell and Developmental Biology, 2020)",
  "key": {"[1]": {"test_system": "rat bone marrow derived macrophages", "assay": "TLR4-mediated necroptosis induced by LPS/z-VAD in rat bone marrow-derived macrophages", "assay_type": "cell-based", "details": "rat BMDM; 2 h pretreatment, LPS 20 ng/ml plus z-VAD for 24 h", "source_text": "Human colon cancer HT-29 and mouse fibrosarcoma L929 cells were from ATCC. Mouse embryonic fibroblasts (MEF), HT-29 cells stably expressing RIPK3-shRNA and shRNA resistant scramble Flag-tagged RIPK3 (W46), and NIH3T3 cell line stably expressing RIPK3 fused to mutant FK506-binding protein (NIH3T3-RIPK3) were kindly provided by Dr. Xiaodong Wang [National Institute of Biological Sciences (NIBS), Beijing]. HeLa-MLKL (1-190) cell line was a gift from Dr. Zhigao Wang (University of Texas Southwestern Medical Center at Dallas). These cells were cultured in Dulbecco’s modified Eagle’s medium (Hyclone) supplemeted with 10% fetal bovine serum (Invitrogen) and 2 mM L-glutamine (Invitrogen) in a humidified incubator at 37°C and 5% CO2. NIH3T3-RIPK3 was cultured in complete medium containing […] G418 (Calbiochem). […]\n(§1) Cells were seeded in 96-well plates and then treated as indicated. The cell viability was determined by assessment of ATP levels using the CellTiter-Glo Luminescent Cell Viability Assay kit following the manufacture’s instructions (Promega). Luminescence was calculated with SpectraMax i3x (Molecular Devices).\nCell viability was determined by measuring ATP levels. […] After 5 h, cell viability was determined by measuring ATP levels and ICP6 mRNA expression was detected using viral genome extracted from cell culture supernatant. *P < 0.05. **P < 0.01. ***P < 0.001."}, "[2]": {"test_system": "phosphorylation of RIPK1, RIPK3, and MLKL", "assay": "Western blot of phosphorylation of RIPK1, RIPK3 and MLKL in L929 cells upon necroptotic stimuli", "assay_type": "cell-based, mouse", "details": "2 h pretreatment, TNF-α/z-VAD 4 h", "description": "The cell pellets were harvested and dissolved in lysis buffer (20 mM Tris–HCl, pH 7.4 150 mM NaCl, 1% Triton X-100, 1 mM Na3VO4, 10% glycerol, 25 mM β-glycerol-phosphate, 0.1 mM PMSF, with the Sigma phosphatase inhibitors and the Roche Pierce protease inhibitor set). The re-suspended cell pellet was then incubated on ice for 20 min, followed by centrifugation at 13000 × g for 20 min at 4°C. The supernatants were collected and protein concentrations were measured using the BCA Protein Assay Kit (Thermo Fisher Scientifc, United States). Finally, cell lysates were subjected for western-blot analysis of the indicated antibodies.\nCell lysates were prepared for immunoprecipitation using an anti-Flag antibody. The levels of RIPK3 and RIPK1 in the immunocomplex were determined by western blot analysis."}, "human RIPK3": {"molecular_target": "T1, human RIPK3 (Homo sapiens, UniProt Q9Y572)", "T1 construct": "purchased SignalChem", "T1 sequence (Q9Y572 whole entry)": "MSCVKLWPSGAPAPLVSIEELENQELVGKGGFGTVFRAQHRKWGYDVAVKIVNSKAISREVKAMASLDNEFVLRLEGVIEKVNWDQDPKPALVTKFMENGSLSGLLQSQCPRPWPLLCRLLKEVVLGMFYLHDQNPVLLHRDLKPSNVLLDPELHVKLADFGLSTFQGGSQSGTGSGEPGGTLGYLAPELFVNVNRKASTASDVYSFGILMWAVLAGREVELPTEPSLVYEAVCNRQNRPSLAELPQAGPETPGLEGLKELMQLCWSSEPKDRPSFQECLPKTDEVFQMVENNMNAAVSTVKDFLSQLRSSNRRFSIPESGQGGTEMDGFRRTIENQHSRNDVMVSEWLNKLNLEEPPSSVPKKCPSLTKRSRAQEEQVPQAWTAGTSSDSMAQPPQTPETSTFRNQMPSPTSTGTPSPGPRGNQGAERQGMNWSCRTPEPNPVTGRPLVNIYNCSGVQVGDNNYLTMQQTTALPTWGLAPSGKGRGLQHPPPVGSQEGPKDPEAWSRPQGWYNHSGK", "assay": "In vitro kinase activity assay (ADP-Glo), RIPK3", "assay_type": "biochemical", "details": "ATP 50 μM, MBP 20 μM; compared to GSK’872", "description": "The recombinant human RIPK1 or RIPK3 protein was incubated with the control DMSO or the indicated compound for around 15 min in the assay buffer (25 mM HEPES PH7.2, 12.5 mM MnCl2, 5 mM EGTA, 20 mM MgCl2, 12.5 mM β-glycerol phosphate, 2 mM EDTA, and 2 mM DTT). ATP (50 μM) and the substrate MBP (20 μM) were then added to the reaction at room temperature for 2 h. The kinase activity was calculated by the measuring the luminescence after the addition of the ADP-Glo Kinase Assay kit according to the manufacture’s instructions (Promega).\n(§2) In vitro kinase activity assays using recombinant RIPK3 and RIPK1 were performed as described in the section “Materials and Methods.” Data represent mean value ± standard deviation. […] NIH3T3-RIPK3 cells were pretreated with indicated compounds for 2 h and subsequently treated with AP20187 (60 nM) for 24 h. Cell viability was determined by measuring ATP levels. […] HeLa-MLKL (1–190) cells were induced by doxycycline (1 μg/ml) for 24 h. Cells were pretreated with indicated compounds for 2 h and subsequently treated with AP20187 (60nM) for 24h. Cell viability was determined by measuring ATP levels. […] (F) MEFs were treated as indicated for 3 h. Cell lysates were harvest and subjected to western-blot analysis for full length and cleaved caspase 3."}, "CYP3A4": {"molecular_target": "CYP3A4 (Homo sapiens, UniProt P08684)", "sequence (P08684 whole entry)": "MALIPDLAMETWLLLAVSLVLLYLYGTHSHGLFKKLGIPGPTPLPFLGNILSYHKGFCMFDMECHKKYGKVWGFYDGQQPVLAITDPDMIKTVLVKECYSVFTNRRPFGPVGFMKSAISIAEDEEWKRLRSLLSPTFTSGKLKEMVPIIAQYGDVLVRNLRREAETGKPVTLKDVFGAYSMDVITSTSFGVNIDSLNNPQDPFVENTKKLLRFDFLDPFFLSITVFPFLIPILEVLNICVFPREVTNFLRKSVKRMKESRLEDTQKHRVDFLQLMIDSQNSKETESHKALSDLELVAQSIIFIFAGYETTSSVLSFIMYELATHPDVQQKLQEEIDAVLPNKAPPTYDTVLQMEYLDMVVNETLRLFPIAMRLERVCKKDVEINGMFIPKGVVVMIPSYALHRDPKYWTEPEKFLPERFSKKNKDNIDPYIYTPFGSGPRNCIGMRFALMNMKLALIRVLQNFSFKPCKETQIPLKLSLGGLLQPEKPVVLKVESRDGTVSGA", "assay": "Cytochrome P450 inhibition, CYP3A4", "assay_type": "in vitro ADME", "description": "(§3) Cytochrome P450 (CYP) inhibitory potency was determined by industrial standard methods as reported previously ([Dong et al., 2015]). Methods to determine potassium channel hERG inhibition and in vivo pharmacokinetic parameters have been previously published ([Lu et al., 2017])."}, "HSV-1 ICP6": {"test_system": "HSV-1 ICP6", "assay": "Expression of viral gene ICP6 after HSV-1 infection of L929 cells (real-time PCR)", "assay_type": "cell-based, herpes simplex virus (HSV)-1", "details": "culture supernatants 5 h post HSV-1 infection", "description": "Total RNA was extracted using TRIzol Reagent (Invitrogen) from cell pellets. cDNA was synthesized using a Revert Aid First Strand cDNA kit (Thermo Fisher Scientifc). Real-time PCR was performed using corresponding primers and Power SYBR® Green PCR Master Mix (Invitrogen). The data were normalized to GAPDH. The primer sequences are as follows: ICP6 Forward: […] , Reverse: GGT […]; TNFα Forward: […] , Reverse: […]; CCL3 Forward: […] , Reverse: […]; CXCL1 Forward: GCACCC […] , Reverse: […] CAGA; GAPDH Forward: […] , Reverse: […] .\n(§4) Cell viability was determined by measuring ATP levels. L, LPS; Z, z-VAD. […] After 5 h, cell viability was determined by measuring ATP levels and ICP6 mRNA expression was detected using viral genome extracted from cell culture supernatant. *P < 0.05. **P < 0.01. ***P < 0.001."}, "CYP2C19": {"molecular_target": "CYP2C19 (Homo sapiens, UniProt P33261)", "sequence (P33261 whole entry)": "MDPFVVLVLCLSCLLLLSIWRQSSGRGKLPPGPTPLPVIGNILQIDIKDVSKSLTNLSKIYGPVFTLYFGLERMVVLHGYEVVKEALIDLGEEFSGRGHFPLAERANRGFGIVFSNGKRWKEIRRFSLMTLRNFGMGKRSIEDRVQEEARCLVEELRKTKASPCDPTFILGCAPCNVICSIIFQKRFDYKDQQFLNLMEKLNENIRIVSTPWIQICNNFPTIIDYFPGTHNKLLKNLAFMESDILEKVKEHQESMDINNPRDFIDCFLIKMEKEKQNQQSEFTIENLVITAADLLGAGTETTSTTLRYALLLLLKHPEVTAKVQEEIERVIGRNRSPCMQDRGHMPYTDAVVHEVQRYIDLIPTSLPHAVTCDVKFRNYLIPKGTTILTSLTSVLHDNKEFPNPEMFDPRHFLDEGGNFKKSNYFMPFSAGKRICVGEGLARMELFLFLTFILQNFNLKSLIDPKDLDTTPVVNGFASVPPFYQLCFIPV", "assay": "Cytochrome P450 inhibition, CYP2C19", "assay_type": "in vitro ADME", "description": "as §3"}, "MEFs": {"test_system": "MEFs", "assay": "Activation of caspase-3 / apoptosis in MEFs (western blot, cell viability)", "assay_type": "cell-based", "description": "as §2"}, "CYP2D6": {"molecular_target": "CYP2D6 (Homo sapiens, UniProt P10635)", "sequence (P10635 whole entry)": "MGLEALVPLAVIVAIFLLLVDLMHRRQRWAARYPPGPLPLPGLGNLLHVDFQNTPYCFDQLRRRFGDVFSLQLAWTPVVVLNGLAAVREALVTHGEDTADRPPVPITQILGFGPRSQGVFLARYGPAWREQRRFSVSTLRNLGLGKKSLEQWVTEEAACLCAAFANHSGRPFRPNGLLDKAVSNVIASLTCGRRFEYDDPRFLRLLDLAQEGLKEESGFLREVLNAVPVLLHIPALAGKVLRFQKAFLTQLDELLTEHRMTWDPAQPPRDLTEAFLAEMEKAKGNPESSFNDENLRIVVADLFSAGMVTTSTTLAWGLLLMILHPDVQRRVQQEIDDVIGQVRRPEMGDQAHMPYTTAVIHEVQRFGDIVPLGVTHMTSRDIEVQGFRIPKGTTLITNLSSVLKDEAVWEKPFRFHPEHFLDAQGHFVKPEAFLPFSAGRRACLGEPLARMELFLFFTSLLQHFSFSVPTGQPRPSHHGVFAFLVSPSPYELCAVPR", "assay": "Cytochrome P450 inhibition, CYP2D6", "assay_type": "in vitro ADME", "description": "as §3"}, "L929 cells": {"test_system": "L929 cells", "assay": "HSV-1-induced necroptosis in L929 cells (cell viability)", "assay_type": "cell-based, mouse", "details": "2 h pretreatment, 24 h after HSV-1 infection", "description": "as §1, §4"}, "[3]": {"assay": "Metabolic stability in human liver microsomes", "assay_type": "in vitro ADME", "source_text": "Encouraged by the in vitro and in vivo efficacy data, we sought to evaluate the preliminary drugability profile of Zharp-99.\n(§5) (C) Pharmacokinetic parameters of Zharp-99 determined in male ICR mouse."}, "[4]": {"assay": "Metabolic stability in rat liver microsomes", "assay_type": "in vitro ADME"}, "[5]": {"assay": "In vivo mouse pharmacokinetic study", "details": "male ICR mouse, 2 mg/kg (iv)", "description": "as §3, §5"}},
  "data": [
    {"smiles": "O=S1(=O)C=C(C2CC2)c2cc3nccc(Nc4ccc5scnc5c4)c3cc21", "note": "[Zharp-99]", "values": [
      {"measurement": "inhibition of TLR4-mediated necroptosis induced by LPS/z-VAD", "setting": "[1]", "value": "potently blocked"},
      {"measurement": "phosphorylation of MLKL", "setting": "[2]", "value": "blocked"},
      {"measurement": "phosphorylation of RIPK3", "setting": "[2]", "value": "blocked"},
      {"measurement": "inhibition of the kinase activity of human RIPK3 in vitro", "setting": "human RIPK3", "value": "higher inhibitory activity compared to GSK’872"},
      {"measurement": "% of CYP inhibiton CYP3A4", "setting": "CYP3A4; 10 μM", "value": "did not inhibit"},
      {"measurement": "inhibition at 10 µM", "setting": "CYP3A4; human, read-out: % of CYP inhibiton CYP3A4", "value": 5.04, "unit": "%"},
      {"measurement": "effect on expression of viral gene ICP6", "setting": "HSV-1 ICP6", "value": "did not affect"},
      {"measurement": "% of CYP inhibiton 2C19", "setting": "CYP2C19; 10 μM", "value": "did not inhibit"},
      {"measurement": "inhibition at 10 µM", "setting": "CYP2C19; human, read-out: % of CYP inhibiton 2C19", "value": 4.15, "unit": "%"},
      {"measurement": "induction of apoptosis compared to GSK’872", "setting": "MEFs; MEFs", "value": "more potent"},
      {"measurement": "activation of caspase-3 and cell death", "setting": "MEFs; especially in mouse cells, MEFs treated 3 h (western blot)", "value": "induced activation of caspase-3 and cell death in a dose-dependent manner"},
      {"measurement": "% of CYP inhibiton 2D6", "setting": "CYP2D6; 10 μM", "value": "did not inhibit"},
      {"measurement": "inhibition at 10 µM", "setting": "CYP2D6; human, read-out: % of CYP inhibiton 2D6", "value": -0.44, "unit": "%"},
      {"measurement": "inhibition of HSV-1 induced necroptosis", "setting": "L929 cells", "value": "significantly inhibited"},
      {"measurement": "CLint scaled", "setting": "[3]", "value": 63, "unit": "mL/min/kg"},
      {"measurement": "Clint", "setting": "[3]", "value": "moderate"},
      {"measurement": "half-life", "setting": "[3]", "value": 28, "unit": "min"},
      {"measurement": "CLint scaled", "setting": "[4]; rat liver microsomes", "value": 67, "unit": "mL/min/kg"},
      {"measurement": "Clint", "setting": "[4]; rat liver microsomes", "value": "moderate"},
      {"measurement": "half-life", "setting": "[4]; rat liver microsomes (RLM)", "value": 37, "unit": "min"},
      {"measurement": "Cmax", "setting": "[5]", "value": 1390, "unit": "ng/mL"},
      {"measurement": "half-life", "setting": "[5]", "value": 90, "unit": "min"},
      {"measurement": "AUC", "setting": "[5]; read-out: AUC", "value": 990, "unit": "ng·h/mL"},
      {"measurement": "clearance", "setting": "[5]; read-out: CL (clearance)", "value": 33, "unit": "mL/min/kg"}
    ]}
  ]
}
